Patent US9815788B2, “Anti-angiogenic compounds” (University College Dublin National University of Ireland, …, priority 2012, dated 2017)
Entries after “also recorded” stand apart in the source; their conditions may differ.

Assays:
[1] = tested on: human SW480 colorectal cancer cells; assay: Proliferation / cell number of SW480 cells (crystal violet); assay type: cell-based; conditions: 10 μM, by 96 hours
Experimental: Cells were maintained in RPMI media supplemented with 10% foetal calf serum, penicillin (100 U/ml), streptomycin (100 μg/ml) and amphotericin B (4 μg/ml). A total of 5,000 cells were seeded per well in 96 well plates and left to incubate for 24 hours. The cells were washed in PBS and the media was replaced with solutions containing 10 μM of 5-fluorouracil (5FU), 4H, 11A or 11C. […] At each designated time point, the media was disposed and the cells washed with PBS. The cells were fixed with 1% glutaraldehyde for 20 minutes and then stained with crystal violet for 30 minutes. The plates were blotted and dried overnight. The cells were resuspended with 1% TritonX-100 and shaken for 15 minutes. The absorbance was read on a spectrophotometer at 550 nm.

[2] = tested on: zebrafish intersegmental vessels; assay: Quantification of intersegmental vessel number in zebrafish; assay type: in vivo; conditions: for inhibition of developmental angiogenesis of intersegmental vessels (number of intersegmental vessels): 10 μM, from 6 hpf; for dose-dependent inhibition of development of intersegmental vessels: decreasing doses 10, 7.5, 5 and/or 1 μM; for inhibition of the number of intersegmental vessels that develop: 5 μM
Experimental: […] Larvae were manually dechorionated, euthanised, and fixed in 4% PFA at 4° C. overnight before analysis. The larvae were then washed with PBS and transferred to depression slides for observation under epi-fluorescence in an Olympus SZX16 fluorescent microscope. The number of intersegmental vessels was counted and the average number was graphed for each drug.
Larvae were manually dechorionated, euthanised, and fixed in 4% PFA at 4° C. overnight before analysis. The larvae were then washed with PBS and transferred to depression slides for observation under epi-fluorescence in an Olympus SZX16 fluorescent microscope. The number of intersegmental vessels was counted and the average number was graphed for each drug.

[3] = tested on: explants cultures of human colorectal cancers; assay: Angiogenic/inflammatory factor secretion from human colorectal tumour explants (ELISA, multiplex); assay type: cell-based; conditions: 10 μM, 72 hours; n=40 patients
Experimental: Human colorectal tumour samples were taken directly from the pathology laboratory after surgery once adequate material was taken for diagnostic testing. The tumour samples were washed and stored in DMSO/tumour conditioning media (TCM). The samples were snap-frozen in liquid nitrogen and stored at −80° C. until compound testing was performed. Prior to compound testing, the tumours were thawed and incubated in fresh TCM for 24 hours. The explants were then treated with 4H, 11A and 11C at […] concentrations for 72 hours. The TCM solutions were collected and stored at −20° C. and the remaining tumour explants were snap-frozen in liquid nitrogen and stored at −80° C. Proteins were extracted from the explants using a nuclear RIPA buffer containing PMSF, sodium orthovandate and protease inhibitors. The explants were homogenised in a PreCellys™ machine. The total protein contents were determined from the resulting lysates using the BCA assay™. […] The secretion of angiogenic cytokines was quantified using sandwich ELISA (DuoSet, R&D) for VEGF, ENA-78, MCP-1 and GROα and a multiplex assay (MSD) was used for the inflammatory cytokines: IL-13, TNF, IL-6 and IL-8. The secretion data were normalised according to the tumour sample's protein content.

[4] = tested on: zebrafish hyaloid vasculature; assay: Quantification of primary hyaloid vasculature branch number in Tg(fli1:EGFP) zebrafish; assay type: in vivo; conditions: for inhibition of developmental angiogenesis of the hyaloid vasculature (number of primary hyaloid vessels): typically 10 μM or 5 μM, from 24 hpf, vs DMSO control
Experimental: (§1) All experiments were carried out under ethical approval granted by the UCD animal research ethics committee. Tg(fli1:EGFP) zebrafish were maintained according to standard procedures on a 14 hr light/10 hr dark cycle at 28° C. Embryos were obtained by natural spawning and developmental stages established by time and morphological criteria. […] Larvae were euthanised, and fixed in 4% PFA at 4° C. overnight before analysis.
Overall patterning of the vasculature (fin, gut and intersegmental vessels) was examined for abnormalities. Right lenses were dissected from the larvae and transferred to depression slides for observation under epi-fluorescence in the Olympus SZX16. Patterning of the hyaloid vessels on the treated larval lenses was compared to DMSO controls and the archetypal pattern previously described (Alvarez et al., 2007; Alvarez et al., 2009).
as §1, with “analysis. Lenses were dissected from the larvae and transferred to depression slides for observation under epi-fluorescence in the Olympus SZX16. Patterning of the hyaloid vessels on the treated larval lenses was compared to DMSO controls and the archetypal pattern previously described (Alvarez et al., 2007; Alvarez et al., 2009).” for “analysis.”

Q: How did the “cell number, % of the control” value [1] turn out when `O=c1[nH]cc(F)c(=O)[nH]1` [5-fluorouracil, reference compound] was run?
A: 60%

Q: How did the “inhibition of developmental angiogenesis of intersegmental vessels (number of intersegmental vessels)” value [2] turn out when `Cc1ccc(N2C(=O)CC(NNC(=O)c3ccccc3)C2=O)c(C)c1` (stereo not drawn) [Compound 4H, N′-[1-(2,4-dimethylphenyl)-2,5-dioxo-3-pyrrolidinyl]benzohydrazide] was run?
A: significant inhibition; also recorded: inhibit developmental angiogenesis of zebrafish intersegmental vessels in a statistically significant manner

Q: And the “dose-dependent inhibition of development of intersegmental vessels” value [2]?
A: dose-dependent effect

Q: And the “cell number compared to control” value [1]?
A: did not significantly reduce cell number

Q: What about the “levels of ENA-78 secreted” value [3] of the same compound?
A: significantly reduced

Q: And the “levels of GRO-α secreted” value [3]?
A: significantly reduced

Q: And the “levels of IL-6 secreted” value [3]?
A: significantly reduced

Q: What about the “levels of IL-8 secreted” value [3] of the same compound?
A: significantly reduced

Q: And the “levels of MCP-1 secreted” value [3]?
A: significantly reduced; also recorded: significant effects

Q: And the “levels of VEGF secreted” value [3]?
A: significantly reduced; also recorded: significant effects

Q: Which results are given for `Oc1ccccc1/C=C\c1ccc2ccccc2n1` [Compound 11B_Z, (Z)-2-(2-(Quinolin-2-yl)vinyl) phenol]?
A: inhibition of developmental angiogenesis of the hyaloid vasculature (number of primary hyaloid vessels) [4]: inhibit developmental angiogenesis of the zebrafish hyaloid vasculature in a statistically significant manner; inhibition of developmental angiogenesis of intersegmental vessels (number of intersegmental vessels) [2]: inhibit developmental angiogenesis of zebrafish intersegmental vessels in a statistically significant manner

Q: Which results are given for `O=C(C=Cc1ccc2c(c1)OCO2)NCc1cccnc1` [Compound 11C]?
A: inhibition of the number of primary hyaloid vessels that develop ([4]; 10 μM, n>20): significant inhibition; inhibition of developmental angiogenesis of the hyaloid vasculature (number of primary hyaloid vessels) [4]: inhibit developmental angiogenesis of the zebrafish hyaloid vasculature in a statistically significant manner; inhibition of the number of intersegmental vessels that develop [2]: significant inhibition; inhibition of developmental angiogenesis of intersegmental vessels (number of intersegmental vessels) [2]: significant inhibition; also recorded: inhibit developmental angiogenesis of zebrafish intersegmental vessels in a statistically significant manner; dose-dependent inhibition of development of intersegmental vessels [2]: dose-dependent effect; cell number compared to control [1]: did not significantly reduce cell number; levels of ENA-78 secreted [3]: significantly reduced; levels of GRO-α secreted [3]: significantly reduced; levels of IL-6 secreted [3]: significantly reduced; levels of IL-8 secreted [3]: significantly reduced; levels of MCP-1 secreted [3]: significantly reduced; also recorded: significant effects; levels of TNFα secreted [3]: significantly reduced; levels of VEGF secreted [3]: significant effects

Q: For “(5-bromo-N′-[2-(trifluromethyl)benzylidene]-2-furohydrazide) [Compound 11A]”, which “inhibition of the number of intersegmental vessels that develop” value [2] is on record?
A: significant inhibition

Q: And the “inhibition of developmental angiogenesis of intersegmental vessels (number of intersegmental vessels)” value [2]?
A: significant inhibition; also recorded: inhibit developmental angiogenesis of zebrafish intersegmental vessels in a statistically significant manner

Q: And the “dose-dependent inhibition of development of intersegmental vessels” value [2]?
A: dose-dependent effect

Q: What about the “cell number compared to control” value [1] of the same compound?
A: did not significantly reduce cell number

Q: And the “levels of ENA-78 secreted” value [3]?
A: significantly reduced

Q: And the “levels of GRO-α secreted” value [3]?
A: significantly reduced

Q: And the “levels of IL-1β secreted (printed IL-13, IL-1)” value [3]?
A: significantly reduced

Q: What about the “levels of IL-8 secreted” value [3] of the same compound?
A: significantly reduced

Q: What about the “levels of MCP-1 secreted” value [3] of the same compound?
A: significantly reduced; also recorded: significant effects

Q: And the “levels of TNFα secreted” value [3]?
A: significantly reduced

Q: What about the “levels of VEGF secreted” value [3] of the same compound?
A: significantly reduced; also recorded: significant effects
